This note sets out measurements from ChEMBL document CHEMBL5331133, “Discovery of AZD4747, a Potent and Selective Inhibitor of Mutant GTPase KRASG12C with Demonstrable CNS Penetration” (J Med Chem, 2023).

Data set [1] deals with MDR1 and BCRP. The experiment in a line: (§1) Efflux ratio of apparent permeability in dog MDCK cells transfected with MDR1 and BCRP at 0.1 uM. It counts as ADME, cell-based, Canis lupus familiaris.
Data set [2] can be described thus: Unbound brain-to-plasma concentration ratio in Wistar Han rat at 2.3 microM/Kg, iv and measured after 4 hrs. The settings on record: read-out: K(p,uu,brain). It counts as ADME, organism-based.
Data set [3] has as its target GTPase KRas (Homo sapiens, UniProt P01116, G12C).
A short description of data set [4]: in vitro. The settings on record: human, liver microsomes, CLH.
Description: (§2) Microsomal stability in human liver microsomes assessed as intrinsic clearance
Data set [5] can be described thus: […] stability in rat hepatocyte assessed as intrinsic clearance measured per million of cells. The format is ADME, cell-based. The settings on record: hepatocytes.
Data set [6] can be described thus: Lipophilicity, logD of compound at 7.4. The settings on record: octanol/water.
Data set [7] can be described thus: Dissociation constant, pKa of the compound. The format is physicochemical.
Data set [8] concerns NCI-H358. The experiment in a line: Antiproliferative activity against human NCI-H358 cells harboring KRAS G12C mutant cultured as 3D spheroids assessed as reduction in cell proliferation incubated for 3 days by CellTiter-Glo 3D reagent based assay. The format is functional. The settings on record: NCI-H358, 72 h.
Data set [9] is described as follows: as §1. It counts as ADME, cell-based, Canis lupus familiaris. The settings on record: mdck, 0.1 µM.
For data set [10] the following is noted: human, microsomes.
Description: as §2

Chain of GTPase KRas (P01116 whole entry G12C): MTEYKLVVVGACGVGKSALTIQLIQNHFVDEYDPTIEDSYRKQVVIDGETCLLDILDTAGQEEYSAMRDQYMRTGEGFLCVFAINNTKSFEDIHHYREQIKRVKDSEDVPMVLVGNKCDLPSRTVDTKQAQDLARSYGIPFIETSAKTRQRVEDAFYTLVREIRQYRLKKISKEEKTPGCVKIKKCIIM

`C=CC(=O)N1C[C@H]2CCOc3c(Cl)c(-c4c(O)cccc4F)c(F)c4ncnc(c34)N2C[C@H]1C`: the efflux ratio at 0.1 µM in data set [1] worked out at 37.2. Also, the Kp uu at 4 h in data set [2] amounted to 0.06. This compound yielded a 50% inhibitory concentration (IC50) in data set [3] of 3 nM. The compound also displayed a microsomal CLint in data set [4] of 26 µL/min/mg. Further, the CLH in data set [5] was 41 µL/min. Also, the pH-dependent lipophilicity (logD) in [6] (pH 7.4, logD) turned out to be 3.2.
In the case of `C=CC(=O)N1CCN2Cc3cc(F)c(-c4c(O)cccc4F)c(F)c3OC[C@H]2C1`, 279 nM corresponded to half-maximal inhibition in data set [3] (IC50). The same compound showed a microsomal CLint in data set [4] of 5 µL/min/mg. In [5], the CLH came to 18 µL/min. In addition, in data set [6] (pH 7.4, logD), the logD was determined as 2.5.
For the compound `C=CC(=O)N1CCN2Cc3cc(OC4CC4)c(-c4c(O)cccc4Cl)c(F)c3OC[C@H]2C1`, in [3], the midpoint of inhibition, the IC50, lay at 81 nM. The microsomal CLint in data set [4] came to 25 µL/min/mg. Besides, the CLH in [5] is 174 µL/min. Besides, in [6] (pH 7.4, logD), the log distribution coefficient (logD) was 2.6.
As to `C=CC(=O)N1CCN2Cc3cc(F)c(-c4c(O)cccc4Cl)c(F)c3OC[C@H]2C1.O`, the efflux ratio at 0.1 µM in data set [1] was 0.7. The compound also returned a pKa in data set [7] of 3.9. For the same compound, the Kp uu at 4 h in data set [2] turned out to be 0.11. It took 43 nM to reach half-maximal inhibition in data set [3] (IC50). In [4], the microsomal CLint was less than 7 µL/min/mg. The CLH in data set [5] was 20 µL/min. Besides, the logD in data set [6] (pH 7.4, logD) amounted to 2.8.
Regarding `C=CC(=O)N1CCN2Cc3cc(Cl)c(-c4c(O)cccc4Cl)c(F)c3OC[C@H]2C1`, in data set [1], the efflux ratio at 0.1 µM is 0.6. This compound also showed an IC50 in [3] of 29 nM. Besides, in [4], the microsomal CLint stood at 17 µL/min/mg. In data set [5], the CLH was found to be 44 µL/min. In addition, the log distribution coefficient (logD) in data set [6] (pH 7.4, logD) came out at 3.2.
With `C=CC(=O)N1CCN2Cc3cc(OC(F)F)c(-c4c(O)cccc4Cl)c(F)c3OC[C@H]2C1`, the IC50 in data set [3] is 160 nM. The compound further had a microsomal CLint in [4] of 18 µL/min/mg. Moreover, the CLH in data set [5] was determined as 143 µL/min. In data set [6] (pH 7.4, logD), the logD was found to be 2.7.
In the case of `C=CC(=O)N1CCN2Cc3cc(F)c(-c4c(C)cccc4O)c(F)c3OC[C@H]2C1`, the efflux ratio at 0.1 µM in data set [1] came to 1.2. In data set [2], the Kp uu at 4 h came out at 0.15. Further, the IC50 in data set [3] was determined as 90 nM. In data set [4], this compound returned an intrinsic clearance (microsomal CLint) of 19 µL/min/mg. Besides, in data set [5], the CLH came to 29 µL/min. Besides, the logD in data set [6] (pH 7.4, logD) amounted to 2.4.
Take `C#Cc1cc(CN2CCN(C(=O)C=C)CC2)cc(F)c1-c1c(O)cccc1Cl`: inhibition in [3] was half-maximal at 13600 nM (IC50). This compound showed a microsomal CLint in data set [4] of 18 µL/min/mg. The CLH in [5] came out at 38 µL/min. Besides, in [6] (pH 7.4, logD), the logD amounted to 3.2.
For the compound `C=C(F)C(=O)N1CCN(c2nc(OC[C@@H]3CCCN3C)nc3c2CCN(c2cccc4cccc(Cl)c24)C3)C[C@@H]1CC#N` [ADAGRASIB], the concentration for half-maximal inhibition (IC50) in data set [8] was 6 nM. Moreover, the Kp uu at 4 h in [2] is 0.01. In data set [4], this compound displayed an intrinsic metabolic clearance (microsomal CLint) of 80 µL/min/mg. In data set [5], the CLH was 12 µL/min. The compound further gave a logD in data set [6] (pH 7.4, logD) of 3.6.
Consider `C=CC(=O)N1CCN2Cc3ccc(-c4c(O)cccc4F)c(Cl)c3OC[C@H]2C1`, for which, in data set [1], the efflux ratio at 0.1 µM amounted to 0.8. In addition, it took 231 nM to reach half-maximal inhibition in data set [3] (IC50). In addition, the microsomal CLint in data set [4] turned out to be 33 µL/min/mg. The CLH in [5] is 52 µL/min.
Take `C#Cc1cc2c(c(F)c1-c1c(O)cccc1Cl)OC[C@H]1CN(C(=O)C=C)CCN1C2`: the efflux ratio at 0.1 µM in data set [1] turned out to be 1. In [7], this compound came in with a pKa of 3.9. For the same compound, in [2], the Kp uu at 4 h came to 0.05. Moreover, in [3], it took 19 nM to reach half-maximal inhibition (IC50). This compound returned a microsomal CLint in data set [4] of 16 µL/min/mg. Further, the CLH in [5] amounted to 23 µL/min. This compound also displayed a logD in [6] (pH 7.4, logD) of 2.7.
In the case of `C=CC(=O)N1CCN2Cc3ccc(-c4c(C)ccc5[nH]ncc45)c(Cl)c3OC[C@H]2C1`, the efflux ratio at 0.1 µM in [1] was determined as 0.4. Further, the Kp uu at 4 h in [2] stood at 0.24. In addition, the IC50 in [3] turned out to be 332 nM. Also, the microsomal CLint in [4] amounted to 86 µL/min/mg. For the same compound, the CLH in data set [5] was 156 µL/min. Also, the logD in [6] (pH 7.4, logD) was 3.2.
On to `C=CC(=O)N1CCN2Cc3cc(C#N)c(-c4c(O)cccc4Cl)c(F)c3OC[C@H]2C1`, for which the efflux ratio at 0.1 µM in data set [1] was determined as 6.5. For the same compound, the IC50 in data set [3] came to 16 nM. The microsomal CLint in data set [4] was 13 µL/min/mg. In data set [5], the CLH was found to be 54 µL/min. Besides, the logD in [6] (pH 7.4, logD) is 2.5.
For `C=CC(=O)N1CCN2Cc3cc(C(F)F)c(-c4c(O)cccc4Cl)c(F)c3OC[C@H]2C1`, the half-maximal inhibitory concentration (IC50) in [3] is 130 nM. In data set [4], the intrinsic metabolic clearance (microsomal CLint) stood at 63 µL/min/mg. For the same compound, the CLH in data set [5] stood at 99 µL/min. The compound also displayed a logD in data set [6] (pH 7.4, logD) of 3.
In [4], `C=CC(=O)N1CCN2c3ncnc4cc(-c5c(C)ccc6[nH]ncc56)c(Cl)c(c34)OC[C@@H]2C1` displayed a microsomal CLint of 58 µL/min/mg. The CLH in data set [5] was 109 µL/min.
As for `C=CC(=O)N1CCN2Cc3cc(OC)c(-c4c(O)cccc4Cl)c(F)c3OC[C@H]2C1`, in data set [1], the efflux ratio at 0.1 µM amounted to 1.9. Also, inhibition in data set [3] was half-maximal at 74 nM (IC50). This compound came in with a microsomal CLint in [4] of 15 µL/min/mg. Also, the CLH in data set [5] came out at 59 µL/min. Also, in [6] (pH 7.4, logD), the logD turned out to be 2.2.
`C=CC(=O)N1CCN2C(=O)c3cc(OCCOC)c(-c4c(O)cccc4Cl)c(F)c3OC[C@H]2C1` gave an IC50 in data set [3] of 99 nM. This compound also had a microsomal CLint in data set [4] of 41 µL/min/mg. In data set [5], the CLH was found to be 48 µL/min. Besides, the pH-dependent lipophilicity (logD) in [6] (pH 7.4, logD) came to 2.
With `C=CC(=O)N1CCN(c2nc(=O)n(-c3c(C)ccnc3C(C)C)c3nc(-c4c(O)cccc4F)c(F)cc23)[C@@H](C)C1` [SOTORASIB], in [8], the IC50 turned out to be 1 nM. Further, the Kp uu at 4 h in data set [2] was 0.01. Besides, in [4], the microsomal CLint turned out to be 36 µL/min/mg. Further, the CLH in data set [5] is 18 µL/min. This compound registered a logD in [6] (pH 7.4, logD) of 2.3.
`C=CC(=O)N1CCN(Cc2cc(F)c(-c3c(O)cccc3Cl)c(F)c2)CC1` came in with an IC50 in data set [3] of 7820 nM. The compound further returned a microsomal CLint in data set [4] of less than 3 µL/min/mg. For the same compound, the CLH in [5] was found to be 122 µL/min. Moreover, the logD in [6] (pH 7.4, logD) turned out to be 3.3.
Regarding `C=CC(=O)N1CCN2Cc3ccc(-c4c(C)ccc5[nH]ncc45)c(Cl)c3OC[C@@H]2C1`, in data set [1], the efflux ratio at 0.1 µM worked out at 0.9. Moreover, in data set [2], the Kp uu at 4 h was 0.41. In data set [3], this compound yielded an IC50 of 1310 nM. In addition, the microsomal CLint in data set [4] was greater than 294 µL/min/mg. The CLH in [5] worked out at 130 µL/min. Besides, the logD in data set [6] (pH 7.4, logD) came out at 3.5.
For `C=CC(=O)N1CCN2Cc3ccc(-c4c(C)ccc5[nH]ncc45)c(Cl)c3OCCC2C1` (stereo in doubt; 19), the efflux ratio at 0.1 µM in data set [1] is 1.4. The compound also showed an IC50 in data set [3] of 8290 nM. For the same compound, the microsomal CLint in data set [4] amounted to 294 µL/min/mg. The CLH in data set [5] was determined as 234 µL/min. Moreover, in data set [6] (pH 7.4, logD), the log distribution coefficient (logD) was 3.2.
The compound `C=CC(=O)N1CCN2Cc3cc(C4CC4)c(-c4c(O)cccc4Cl)c(F)c3OC[C@H]2C1` showed an IC50 in data set [3] of 22 nM. In addition, the microsomal CLint in [4] worked out at 97 µL/min/mg. For the same compound, in data set [5], the CLH was found to be 101 µL/min. Also, the logD in data set [6] (pH 7.4, logD) is 3.2.
In the case of `C=CC(=O)N1CCN2C(=O)c3ccc(-c4c(C)ccc5[nH]ncc45)c(Cl)c3OC[C@@H]2C1`, in data set [1], the efflux ratio at 0.1 µM was 1.4. Moreover, the IC50 in data set [3] stood at 4300 nM. For the same compound, the microsomal CLint in data set [4] is 54 µL/min/mg. Also, in data set [5], the CLH worked out at 93 µL/min. Also, the pH-dependent lipophilicity (logD) in data set [6] (pH 7.4, logD) was determined as 2.8.
Taken in the same sequence, the figures for `C=CC(=O)N1CCN2Cc3cc(F)c(-c4c(O)cccc4F)c(Cl)c3OC[C@H]2C1` were 1.2, 149 nM, 8 µL/min/mg, 42 µL/min and 2.8.
Taken in the same sequence, the figures for `C=CC(=O)N1CCN2Cc3cc(OCCN(C)C)c(-c4c(O)cccc4Cl)c(F)c3OC[C@H]2C1` were 12.4, 110 nM, 10 µL/min/mg, 8 µL/min and 1.
For the compound `C=CC(=O)N1CCN2Cc3ccc(-c4c(C)ccc5[nH]ncc45)c(Cl)c3OCCC2C1` (stereo in doubt; 20), the Ratio in [9] came out at 2.1. In addition, it took 4010 nM to reach half-maximal inhibition in data set [3] (IC50). The CLH in data set [10] was greater than 300 µL/min/mg; in data set [5] it was 97 µL/min. Besides, in data set [6] (pH 7.4), the logD is 3.3.
